Measurements reported in article doi:10.1101/2023.07.11.548539v1, “A side-by-side comparison of peptide-delivered antisense antibiotics employing different nucleotide mimics” (bioRxiv, 2023).

Test system: outer membrane of Salmonella
Experiment: Outer membrane permeabilization (NPN fluorescence)
Assay type: cell-based, Salmonella enterica serovar Typhimurium strain SL1344
Details: test compounds 10 µM final, added at 14 min; NPN 10 µM; 5 mM HEPES, 5 mM glucose pH 7.2; CTAB and Polymyxin B positive controls
Description: The experiments were performed by modifying previously published protocols ([48]–[50]). Salmonella (WT SL1344, JVS-1574) were grown overnight in 4 ml MHB medium at 37 °C (with shaking at 220 rpm). Then the culture was diluted 1:100 and grown until OD 0.5 (∼2×10^8 cfu/mL). This culture was harvested and washed two times with 5mM HEPES and further diluted to OD 0.2 in 5 mM HEPES supplemented with 5 mM Glucose (pH 7.2). These cells were then incubated with N-phenylnaphthylamine (NPN) (Sigma, USA) at a final concentration of 10 µM. 190 µl of NPN treated cells were transferred into 96-well back plates with transparent bottom and fluorescence (excitation = 350 nm, emission = 420 nm) was recorded for 60 min (reading was performed every minute) using a Synergy H1 plate reader (Biotek). On the fourteenth minute, 10 µl of the test compounds (10 µM final concentration) was added into the wells. CTAB (Sigma, USA) 200 µM or Polymyxin B (Sigma, USA) 10 µg/ml (final concentration of 0.5 µg/ml) were used as positive controls, while water was used as negative control. The fluorescence of the wells were monitored using the same settings as above. The experiment was performed three times and Figure 10 is based on a single representative experiment.

CCCCCCCCCCCCCCCC[N+](C)(C)C.[Br-] [CTAB, reference compound]
Outer membrane permeabilization, NPN fluorescence (in words): rapid increase in florescence

Polymyxin B [reference compound]
Outer membrane permeabilization, NPN fluorescence (in words): rapid increase in florescence
